Results published in article PMC11395447, “Development and Optimization of a Bromothymol Blue-Based PLA2 Assay Involving POPC-Based Self-Assemblies” (International Journal of Molecular Sciences, 2024).

Target: T1, PLA2-IB (Phospholipase A2 IB) (Sus scrofa, UniProt P00592)
T1 construct: gene PLA2G1B
Test: bromothymol blue absorbance assay, Michaelis-Menten kinetics on POPC liposomes (Km)
Type: biochemical

T1 sequence (P00592 23-146): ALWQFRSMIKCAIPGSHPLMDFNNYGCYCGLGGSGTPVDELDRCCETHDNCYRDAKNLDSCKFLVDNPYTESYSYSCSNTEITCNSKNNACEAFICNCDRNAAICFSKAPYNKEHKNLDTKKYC

## POPC
  Km: 12.9 µM
